Laboratory results: paper PMC6906472, “Purification and biological activity of natural variants synthesized by tridecaptin M gene cluster and in vitro drug-kinetics of this antibiotic class” (Scientific Reports, 2019)
Square brackets hold non-standard residues; d marks the D form. Peptide text beside a SMILES is read from it. * marks the point of attachment. X2 = CC[C@H](C)CCCC[C@@H](O)CC(=O)*; d(aIle) = CC[C@H](C)[C@@H](N)C(=O)O; X1 = CC[C@H](C)CCCCC(=O)*; dDab = NCC[C@@H](N)C(=O)O; Dab = NCC[C@H](N)C(=O)O

Columns and labels:
[1] = tested on: Proteus mirabilis MTCC 1429
Procedure: (§1) MICs for all the compounds were determined by broth microdilution assay, according to CLSI guidelines[16] as described previously. Haemolysis experiments were performed with fresh rabbit RBCs[11]. All the compounds were tested at a concentration of 128 µg/ml. To obtain rabbit blood, the experiments and the protocols were in accordance with the ethical standards of the Institutional Animal Ethics Committee (IAEC) of the Institute of Microbial Technology approved (Approval no. IAEC/17/11) by Committee for the Purpose of Control And Supervision of Experiments on Animals (CPCSEA, Government of India).

[2] = tested on: K. pneumoniae ATCC 700603
Procedure: as §1

[3] = tested on: K. pneumoniae AH-3 (Col-R)
Procedure: as §1

[4] = tested on: A. baumannii ATCC 19606; details: ATCC 19606
Procedure: as §1

[5] = tested on: K. pneumoniae GMCH 15
Procedure: as §1

[6] = tested on: P. aeruginosa ATCC 27853; details: ATCC 27853
Procedure: as §1

[7] = tested on: E. coli CF-23 (mcr-1)
Procedure: as §1

[8] = tested on: K. pneumoniae P3R (M1-R); details: broth microdilution, CLSI guidelines; M1-resistant mutant of ATCC 700603
Procedure: as §1

[9] = tested on: Serratia marcescens MTCC 97
Procedure: as §1

[10] = tested on: K. pneumoniae AH-16 (Col-R)
Procedure: as §1

[11] = tested on: K. pneumoniae GMCH 13
Procedure: as §1

[12] = tested on: A. baumannii ATCC 19606; assay: microbe, parasite or virus in culture
Procedure: (§2) Acinetobacter baumannii ATCC 19606, Pseudomonas aeruginosa ATCC 27853, K. pneumoniae ATCC 700603, K. pneumoniae P3R, K. pneumoniae GMCH 13 and K. pneumoniae GMCH 15 were grown in CA-MHB and adjusted to ~4 × 10^5 CFU/ml. 100 µl of fresh CA-MHB containing carbonyl cyanide m-chlorophenyl hydrazine (CCCP) or phenylalanine-arginine beta-naphthylamide (PAβN) (at a final concentration of their 1/4th of MIC or 1/8th of MIC) was added to the wells of a 96-well flat bottom plate. Tridecaptin M was diluted in a 2-fold manner. 100 µl of culture was added and the plates were incubated for 16 to 18 h at 37 °C and observed for MICs. The fold modulation in MICs of tridecaptin M was calculated by comparing the results in the presence or absence of CCCP and PAβN.

[13] = tested on: K. pneumoniae GMCH 15; assay: microbe, parasite or virus in culture
Procedure: as §2

[14] = tested on: P. aeruginosa ATCC 27853; assay: microbe, parasite or virus in culture; details: ATCC 27853
Procedure: as §2

[15] = tested on: K. pneumoniae GMCH 13; assay: microbe, parasite or virus in culture
Procedure: as §2

[16] = tested on: K. pneumoniae P3R (Tri-M Resistant); assay: microbe, parasite or virus in culture
Procedure: as §2

[17] = Order of elution in RP-HPLC (hydrophobicity); assay type: physicochemical; details: C18, acetonitrile/water with 0.075% TFA, in words
Procedure: The strain M-152 was inoculated in 700 ml MHB in 2 L Erlenmeyer flask, and the crude fermentation extract preparation, ion-exchange chromatography and the first step of RP-HPLC were performed as described for tridecaptin M[11]. The peaks obtained in HPLC were assayed against K. pneumoniae using agar well diffusion method. The active peaks (Fig. 1) were purified by the second round of HPLC under different conditions, optimized for each compound. The mobile phase system for all the peaks consisted of solvent A as 20% acetonitrile in Milli-Q and solvent B as 100% acetonitrile. Both solvents contained 0.075% TFA. C18 column (Waters, XBridge, 10 mm × 250 mm, 5 µm, 130 Å) was used to purify the compounds. Following gradient was used for the resolution of different components; for P1, 8% B to 26% B in 30 min, for P3, 8% B to 25% B in 23 min, for P4, 8% B to 23% B in 22 min, for P5, 3% B to 21.5% B in 24 min, for P6, 10% B to 25% B in 25 min, for P7, 8% B to 28% B in 25 min, for P8, 8% B to 26% B in 23 min, for P10, 10% B to 28% B in 30 min, for P11, 10% B to 28% B in 31 min. In two to three min, the gradient was reversed to initial column conditions and was equilibrated for five to six min, before the next injection. Multiple injections were given to generate a sufficient quantity of each compound for further studies.

[18] = tested on: outer membrane of A. baumannii ATCC 19606, P. aeruginosa ATCC 27853, K. pneumoniae ATCC 700603, P3R; assay: Outer membrane permeabilization (NPN assay); assay type: cell-based; details: peptide 4 µg/ml and 8 µg/ml; triplicate, three biological repeats
Procedure: For outer membrane permeabilization study, NPN dye was used as described previously. A. baumannii ATCC 19606, P. aeruginosa ATCC 27853, K. pneumoniae ATCC 700603 were treated with two different concentrations of the peptide (4 µg/ml and 8 µg/ml). To check alteration in the cytoplasmic membrane potential, DiSC3(5) probe was used[11].

[19] = ~4 × 10^5 CFU/ml, CA-MHB, 16 to 18 h, 37 °C

Q: With `CC[C@H](C)CCCCC(=O)NCC(=O)N[C@H](CCN)C(=O)NCC(=O)N[C@H](CO)C(=O)N[C@H](Cc1c[nH]c2ccccc12)C(=O)N[C@@H](CO)C(=O)N[C@@H](CCN)C(=O)N[C@H](CCN)C(=O)N[C@H](C(=O)N[C@@H](CCC(=O)O)C(=O)N[C@H](C(=O)N[C@@H](C(=O)N[C@@H](CO)C(=O)O)[C@@H](C)CC)[C@@H](C)CC)[C@@H](C)CC` [M1, tridecaptin M] (X1-G[dDab]G[dS][dW]S[Dab][dDab]IEI[d(aIle)]S-OH) as the molecule, how does the “Peptide MIC” value [1] read?
A: Its value is over 16 µg/mL.

Q: And the “Peptide MIC” value [2]?
A: The value was 4 µg/mL.

Q: And the “Peptide MIC” value [3]?
A: The value was 4 µg/mL.

Q: What about the “Peptide MIC” value [4] of the same molecule?
A: Its value is 64 µg/mL.

Q: What about the “Peptide MIC” value [5] of the same molecule?
A: The value was 16 µg/mL.

Q: What about the “Peptide MIC” value [6] of the same molecule?
A: Its value is over 128 µg/mL.

Q: And the “Peptide MIC” value [7]?
A: Its value is 4 µg/mL.

Q: And the “Peptide MIC” value [8]?
A: The value was 64 µg/mL.

Q: And the “Peptide MIC” value [9]?
A: The value was 8 µg/mL.

Q: What about the “Peptide MIC” value [10] of the same molecule?
A: Its value is 4 µg/mL.

Q: What about the “Peptide MIC” value [11] of the same molecule?
A: The value was 8 µg/mL.

Q: What about the “Intrinsic Activity; MIC” value ([12]; ATCC 19606) of the same molecule?
A: Its value is 64 µg/mL.

Q: And the “MIC of peptide in the presence of PAβN” value ([12]; ATCC 19606)?
A: The value was 64 µg/mL.

Q: What about the “Intrinsic Activity; MIC” value ([13]; GMCH 15) of the same molecule?
A: The value was 16 µg/mL.

Q: What about the “MIC of peptide in the presence of PAβN” value ([13]; GMCH 15) of the same molecule?
A: The value was 16 µg/mL.

Q: And the “Intrinsic Activity; MIC” value [14]?
A: Its value is 256 µg/mL.

Q: What about the “MIC of peptide in the presence of CCCP” value [14] of the same molecule?
A: Its value is 256 µg/mL.

Q: And the “MIC of peptide in the presence of PAβN” value [14]?
A: Its value is 256 µg/mL.

Q: And the FICI ([15]; GMCH 13)?
A: Its FICI is 0.75.

Q: And the “Intrinsic Activity; MIC” value ([15]; GMCH 13)?
A: Its value is 8 µg/mL.

Q: And the “MIC of peptide in the presence of PAβN” value ([15]; GMCH 13)?
A: The value was 8 µg/mL.

Q: And the “MIC of peptide in the presence of CCCP” value ([16]; CCCP at 1/4th MIC)?
A: Its value is 64 µg/mL.

Q: What about the “MIC of peptide in the presence of CCCP” value ([16]; CCCP at 1/8th MIC) of the same molecule?
A: The value was 64 µg/mL.

Q: And the “MIC of peptide in the presence of PAβN” value ([16]; PAβN at 1/4th MIC)?
A: The value was 64 µg/mL.

Q: And the “MIC of peptide in the presence of PAβN” value ([16]; PAβN at 1/8th MIC)?
A: Its value is 64 µg/mL.

Q: What about the “Intrinsic Activity; MIC” value [16, 19] of the same molecule?
A: Its value is 64 µg/mL.

Q: Which “hydrophobicity by order of elution in HPLC” value [17] does the source give for `CC[C@H](C)CCCC[C@@H](O)CC(=O)N[C@@H](C(=O)N[C@H](CCN)C(=O)NCC(=O)N[C@H](CO)C(=O)N[C@H](Cc1ccccc1)C(=O)N[C@@H](CO)C(=O)N[C@@H](CCN)C(=O)N[C@H](CCN)C(=O)N[C@@H](Cc1ccccc1)C(=O)N[C@@H](CCC(=O)O)C(=O)N[C@H](C(=O)N[C@@H](C(=O)N[C@@H](CO)C(=O)O)[C@@H](C)CC)[C@@H](C)CC)C(C)C` [M11] (X2-[dV][dDab]G[dS][dF]S[Dab][dDab]FEI[d(aIle)]S-OH; N-terminus and C-terminus assumed) here?
A: Its value is “greater hydrophobicity”.

Q: What about the “Peptide MIC” value [1] of the same molecule?
A: The value was 4 µg/mL.

Q: And the “Peptide MIC” value [2]?
A: Its value is 2 µg/mL.

Q: And the “Peptide MIC” value [3]?
A: The value was 1 µg/mL.

Q: What about the “Peptide MIC” value [6] of the same molecule?
A: The value was 8 µg/mL.

Q: What about the “Peptide MIC” value [7] of the same molecule?
A: Its value is 1 µg/mL.

Q: And the “Peptide MIC” value [9]?
A: Its value is 4 µg/mL.

Q: What about the “Peptide MIC” value [10] of the same molecule?
A: The value was 1 µg/mL.

Q: And the “fold modulation (reduction) of MIC in the presence of CCCP” value ([12]; MIC with versus without CCCP)?
A: Its value is “four”.

Q: What about the “Intrinsic Activity; MIC” value [12, 19] of the same molecule?
A: Its value is 4 µg/mL.

Q: And the “MIC of peptide in the presence of CCCP” value ([13]; CCCP at 1/4th MIC)?
A: Its value is 2 µg/mL.

Q: What about the “MIC of peptide in the presence of CCCP” value ([13]; CCCP at 1/8th MIC) of the same molecule?
A: The value was 2 µg/mL.

Q: And the “Intrinsic Activity; MIC” value [13, 19]?
A: The value was 2 µg/mL.

Q: What about the “MIC of peptide in the presence of CCCP” value ([15]; GMCH 13) of the same molecule?
A: Its value is 2 µg/mL.

Q: And the “Intrinsic Activity; MIC” value [15, 19]?
A: Its value is 4 µg/mL.

Q: What about the NPN uptake [18] of the same molecule?
A: Its NPN uptake is “greater uptake of NPN, compared to M1”.
